The source of these data is US20030229137A1, “Methods of inhibiting osteoclast activity” (priority 2001, published 2003).

Assay [1] has as its system synthesis of TXA2 in human platelets. Conditions: applied five minutes before AA; cited from earlier work.
Assay [2] relates to ATP release in human platelets. Conditions: applied five minutes before AA; cited from earlier work.
Assay [3] relates to AA-stimulated aggregation in human platelets. Conditions: applied five minutes before AA; cited from earlier work.
The test system of assay [4] is synthesis of PGE2 in human platelets. The note with it: applied five minutes before AA; cited from earlier work.
Assay [5] relates to osteoclast formation from PBMC. Kind of assay: in vitro osteoclast formation assay (RANKL/M-CSF, MTS/TRAP). The class given is cell-based. Conditions: for suppression of osteoclast formation under the test conditions (in words): Table 1 experiments. How it is done: Each of the kavalactones isolated in Example 1 was studied in an in vitro osteoclast formation assay. The protocol used (essentially that described in T. Yoneda et al., Endocrinology, 129(2):683-689 (1991) and H. Zhou et al., J Biol. Chem., 272, 14926 (2001)) is as follows:
(A) Osteoclast Formation Culture
1) Prepare assay wells (n=4) for each dilution of a test compound in a 384-plate. Each well contains 25 μl of 2× conc. of the compound in 10% FBS-media/0.5% DMSO.
2) Suspend PBMC in 10% FBS-media supplemented with 40 ng/ml of RANKL and 20 ng/ml of human M-CSF at 1.5 M cells/ml.
3) Vortex cell suspension and filtrate through mesh filter to remove cell aggregates.
4) Inoculate 25 μl of cell suspension to each well.
5) Centrifuge the assay plate at 1500 rpm (˜700 g) for 1 min.
6) Start osteoclast formation culture in a 5% CO2-incubator.
7) After 48 h of the culture, replenish 10 μl of 10% FBS-media supplemented with 120 ng/ml of RANKL and 60 ng/ml of M-CSF. Continue the culture until multiple osteoclasts are visible in control wells (up to 4˜5 days).
1) Add 6 μl of MTS reagent to each well and further incubate 1˜2 hrs.
2) Measure absorbance at 490 nm.
3) Discard MTS/culture media and fix cells in 60% acetone/0.38 M citrate buffer, pH 5.4 for 30 sec. Rinse cells with MQ once and air-dried.
4) Incubate each well in 25 μl of 5 mM p-nitrophenyl phosphate/tartrate/acetic acid solution for 2˜3 hrs (divert buffers from acid phosphate, leukocyte kit from Sigma #386-A).
5) Measure absorbance at 405 nm.
6) Discard p-nitrophenyl phosphate solution, rinse wells with MQ and stain cells with the acid phosphate, leukocyte kit.
7) Count multinucleate (>3) TRAP#-positive cell number under microscope. # Tartarate Resistant Acid Phosphatase

Where [6] appears, read: Osteoclast, protocol of Example 2, PBMC with RANKL and M-CSF, read-out: IC50 (osteoclast formation inhibition).

pIC50: −log10 of the molar value. A value given as a limit tells only on which side of the number the result lay.

As a reminder, the pIC50 is the negative decadic logarithm of the IC50, by convention in mol/L. Turning to `COC1=CC(=O)O[C@@H](/C=C/c2ccccc2)C1` [(+)-kawain], the pIC50 was 4.15 in assay [1], 3.94 in assay [2], 4.11 in assay [3] and 4.07 in assay [4].
Broadly, the IC50 is the midpoint of a concentration-inhibition curve. As to `C=CC[C@@H]1/C=C(\C)C[C@H](C)C[C@H](OC)[C@H]2O[C@@](O)(C(=O)C(=O)N3CCCC[C@H]3C(=O)O[C@H](/C(C)=C/[C@@H]3CC[C@@H](O)[C@H](OC)C3)[C@H](C)[C@@H](O)CC1=O)[C@H](C)C[C@@H]2OC` [FK506, reference compound], the IC50 in assay [5] (setting [6]) was greater than 25 µg/mL.
With `CC(=O)Oc1ccccc1C(=O)O` [aspirin, reference compound], in assay [5] (setting [6]), the pIC50 is less than 4.00. The “suppression of osteoclast formation under the test conditions (in words)” value (“suppression of osteoclast formation” below) in assay [5] was “do not suppress osteoclast formation”. In addition, in assay [5] (at 25 μM), the inhibition of osteoclasts result was “no inhibition”.
As for `Cc1ccc(-c2cc(C(F)(F)F)nn2-c2ccc(S(N)(=O)=O)cc2)cc1` [celecoxib, reference compound], the pIC50 in assay [5] (setting [6]) is less than 4.00.
Still for that read-out and setting: the result for `COc1cc(/C=C/c2ccccc2)oc(=O)c1` [desmethoxyyangonin] reads 4.49.
Consider `COC1=CC(=O)O[C@@H](CCc2ccccc2)C1` [dihydrokawain], for which the “relative osteoclast formation inhibitory activity among the six kavalactones” value in assay [5] is reported as “relatively higher osteoclast formation inhibitory activity”. Besides, in assay [5] (setting [6]), the pIC50 is 5.00. Besides, the inhibition of osteoclasts result in assay [5] (at 15 μM) is given as “almost complete inhibition”.
For the compound `COC1=CC(=O)O[C@@H](CCc2ccc3c(c2)OCO3)C1` [dihydromethysticin], the pIC50 in assay [5] (setting [6]) is 4.89.
`COC1=CC(=O)O[C@@H](/C=C/c2ccccc2)C1` [kawain]: the pIC50 in assay [5] (setting [6]) was 4.55.
As for `COC1=CC(=O)O[C@@H](/C=C/c2ccc3c(c2)OCO3)C1` [methysticin], in assay [5], the “relative osteoclast formation inhibitory activity among the six kavalactones” value is recorded as “relatively higher osteoclast formation inhibitory activity”. Besides, the pIC50 in assay [5] (setting [6]) is 4.89. Further, in assay [5] (at 15 μM), the inhibition of osteoclasts result was “almost complete inhibition”.
In the case of `CC/C(=C(\c1ccccc1)c1ccc(OCCN(C)C)cc1)c1ccccc1` [tamoxifen, reference compound], the “suppression of osteoclast formation” value in assay [5] is reported as “showed consistent activity”.
As for `COc1ccc(/C=C/c2cc(OC)cc(=O)o2)cc1` [yangonin], the “relative osteoclast formation inhibitory activity among the six kavalactones” value in assay [5] is on record as “relatively higher osteoclast formation inhibitory activity”. The pIC50 in assay [5] (setting [6]) is 5.10. In addition, the inhibition of osteoclasts entry in assay [5] (at 10 μM) is “almost complete inhibition”.
In the case of “IL-4: endogeneous osteoclast formation inhibitor, control compound”, the “suppression of osteoclast formation” value in assay [5] is “showed consistent activity”. In addition, the “IC50 (osteoclast formation inhibition)” value in assay [5] (protocol of Example 2, PBMC with RANKL and M-CSF) is less than 0.001 µg/mL.
